The record followed here is patent publication US4990498A, “2- and 8-azido(2'-5')oligoadenylates and antiviral uses thereof” (Temple University-of the Commonwealth System of Higher …, priority 1988, dated 1991).

Experiment [1] relates to 2-5A binding proteins from L929 cells (believed to be forms of RNase L). In words: Photoaffinity labelling / covalent cross-linking of 2-5A binding proteins in interferon-treated L929 cell extracts (SDS-PAGE, autoradiography). Also noted: species or system murine. The note with it: for UV exposure time for maximal photo-crosslinking: 254 nm, 0° C.; for molecular weight of protein(s) specifically photolabelled / cross-linked: L929 cell extracts; for molecular weight of protein(s) specifically photolabelled / cross-linked / number of proteins photolabelled / cross-linked: 60 s UV; for number of proteins photolabelled / cross-linked: interferon-treated L929 cell extracts. As to the method: FIG. 3A is an autoradiogram following SDS-PAGE of interferon-treated L929 cell extracts incubated with [gamma-^32 P]2-azido-p3 A3 at 1×10^-6 M in the absence (lane 1) or presence of p3A3 at 1×10^-5 M and 1×10^-4 M (lanes 2 and 3, respectively).The samples were UV-irradiated for 60 seconds at 0° C. prior to electrophoresis. Photolabelled proteins were detected by autoradiography. Molecular weight standards are indicated.
FIG. 4A is an autoradiogram following SDS-PAGE of interferon treated L929 cell extracts incubated with [alpha-^32 P]8-azido-p3 A3 at 1×10^-6 M in the absence (lanes 1 and 2) or presence of the following: p3 A3 at 1×10^-4 M (lane 3); p3 A3 at 5×10^-4 M (lane 4); or 3'-5'A3 at 5×10^-4 M (lane 5). The samples were UV irradiated (lanes 2-6) for 60 seconds at 0° C. prior to electrophoresis. Under identical experimental conditions, the L929 cell extract was incubated with p3 A4 [^32 P]pCp at 1×10^-8 M (lane 6). Photolabelled proteins were detected by autoradiography.
Ten microliters of L929 cell extracts (100 micrograms protein/assay) were combined with 10 microliters of a buffer (140 mM NaCl, 35 mM Tris-HCl, pH 7.5) and were incubated in the presence of 1×10^-6 M [gamma-^32 p]2-azido -p3 A3 (0.9 microCi/nmol) or 1×10^-6 M [alpha-^32 p]8-azido -p3 A3 (0.9 microCi/nmol) or 1×10^-9 M p3 A4 [^32 P]pCp (3 mCi/nmol) in a 30 microliter final volume. The samples, after incubation in microcentrifuge tubes at 0° C. for 90 minutes, were transferred into ice-mold porcelain spot plates and photolysed for 60 seconds using a 254 nm UVG-11 Mineralight lamp (Ultraviolet Products, Inc.) at a distance of 2 cm (1.0 J/m^2). Sixty microliters of a reductive, protein-solubilizing mixture (15.4 mg/ml dithiothreitol, 25% w/v sucrose, 2.5% sodium dodecylsulfate, 25 mM TrisHCl, pH 8.0, 0.0025% pyronine Y) were added to the samples. Photo-incorporation of the ^32 P-labeled 2-azido-p3 A3 and 8-azido-p3 A3 into the L929 protein was determined by SDS-PAGE (Lamelli, Nature (London) 227:680-685 (1970)). The SDS-PAGE gels were stained with Coomassie blue, dried and subject to autoradiography at -70° C. with X-Omat film (Kodak).

Experiment [2] has as its system RNase L. In words: rRNA cleavage assay: activation of RNase L in L929 cell extracts. The format is biochemical, murine. Particulars: for final concentration at which RNase L is activated to degrade rRNA to specific cleavage products / concentration dependence of rRNA degradation / potency in rRNA degradation relative to authentic p3 A3: L929 cell extracts; for final concentration at which RNase L is activated to degrade rRNA to specific cleavage products: "as low as"; for concentration dependence of rRNA degradation / potency in rRNA degradation relative to authentic p3 A3 / biological activity (RNase L binding and activation) relative to authentic 2-5A: in words. As to the method:
FIG. 2 represents a rRNA cleavage assay with 2-azido-p3 A3 and 8-azido-p3 A3 L929 cell extracts were incubated in the absence (lane 4) or presence of p3 A3 (lane 1), 2-azido-p3 A3 (lane 2), or 8-azido-p3 A3 (lane 3) at 1 x 10^-8 M final concentrations. The positions of 28S and 18S rRNA, and the positions of RNase L specific cleavage products ("SCP"), are indicated.
Activation of RNase L by the compounds of the invention was also measured in a ribosomal RNA cleavage assay using L929 cell extracts. The extracts were prepared in glycerol buffer in 15 microliters final volume as described by Kariko et al., Biochem. Biophys. Res. Commun. 128:695-698 (1985).

Experiment [3] relates to RNase L. The experiment can be described thus: Radiobinding assay: competition with p3 A4 [^32 P]pCp for binding to RNase L in L929 cell extracts. Particulars: in words. Also on record: species or system murine. As to the method: RNase L was obtained from L929 cells by the following procedure. The L929 cells were maintained in monolayer culture in Dulbecco's modified Eagle medium supplemented with 5% bovine serum. Monolayers were tested with 200 units/ml of mouse interferon for 20 hours. Cell extracts of the L929 cells were prepared by collecting the cells by trypsinization, washing them once with phosphate-buffered saline and lysing the cells in NP40 buffer according to the method of Silverman, et al., Eur. J. Biochem. 124:131-138 (1982).
The ability of 8-azido-p3 A3 to compete with p3 A4 -[^32 P]pCp for binding to RNase L in the L929 cell extracts was compared to p3 A3 using radiobinding assays (50 micrograms of protein/assay) according to the method of Knight et al., Methods Enzymol. 79:216-227 (1981). […] 8-Azido-p3 A3 (FIG. 1A, solid circle data points) binds to RNase L with an IC50 of 2×10^-9 M, which is equivalent to the IC50 of authentic p3 A3 (FIG. 1A, solid triangle data points).

For experiment [4], the system named is RNase L. The experiment can be described thus: Core-cellulose assay: activation of partially purified RNase L to hydrolyze poly(U)[^32 P]pCp. It counts as biochemical, murine. The note with it: in words. An excerpt:
The recently developed core cellulose assay of Silverman, Anal. Biochem. 144:450-460 (1985), which involves the immobilization and partial purification of RNase L on 2-5A core-cellulose, was used to measure the ability of 8-azido-p3 A3 to activate RNase L. For this purpose, poly(U)[^32 P]pCp was synthesized from poly(U) using T4 RNA ligase, as described by Silverman. 8-Azido-p3 A3 (solid circle data

The test system of experiment [5] is RNase L. In words: rRNA cleavage assay with photolabelled RNase L/8-azido-p3 A3 complex. The format is biochemical, murine. The note with it: 1×10^-6 M 8-azido-p3 A3, 60 s UV 254 nm; in words. The protocol: Ten microliters of L929 cell extract (100 microgram protein/assay) were combined with ten microliters buffer (140 mM NaCl, 35 mM Tris-HCl, pH 7.5) and were incubated in the presence of 1×10^-6 M 8-azido-p3 A3 in a 30 microliter final volume. The sample was transferred to ice-cold porcelain spot plates and photolysed for 60 second using a 254 nm UVG-11 Mineralight lamp at a distance of 2 cm (1.0 J/m^2) to photolabel the RNase L/8-azido-p3 A3 complex. A ribosomal RNA cleavage assay was performed as described above, but using the photolabelled complex.

For the substance “5'-0-triphosphoryl-(2-azidoadenylyl)(2'-5')2-azidoadenylyl(2'5')2-azidoadenosine [2-azido-p3 A3]”, in experiment [1] (1×10^-6 M [gamma-^32 P]2-azido-p3 A3, 60 s UV, protein a), the “size of photolabelled protein” value was 185,000 dalton. Also, in experiment [1], the “UV exposure time for maximal photo-crosslinking” value turned out to be 60 s, the “molecular weight of protein(s) specifically photolabelled / cross-linked” value is 185,000 and the “number of proteins photolabelled / cross-linked” value is reported as “one”. In the experiment on RNase L [2], the “final concentration at which RNase L is activated to degrade rRNA to specific cleavage products” value is 10^-9 M; the “concentration dependence of rRNA degradation” value was “concentration dependent”; the “potency in rRNA degradation relative to authentic p3 A3” value is listed as “as potent as authentic p3 A3”; the “biological activity (RNase L binding and activation) relative to authentic 2-5A” value is reported as “almost identical to that of authentic 2-5A”.

For “5'-0-triphosphoryl-(8-azidoadenylyl)(2'-5')8-azidoadenylyl(2'-5')8-azidoadenosine [8-azido-p3 A3]”, in experiment [1], the “UV exposure time for maximal photo-crosslinking” value was found to be 60 s, the “molecular weight of protein(s) specifically photolabelled / cross-linked” value is given as 46,000-158,000 and the “number of proteins photolabelled / cross-linked” value is given as “six”. Further, the “inhibition of p3 A4 [^32 P]pCp binding to RNase L” value in the experiment on RNase L [3] is “inhibited p3 A4 [^32 P]pCp binding to RNase L in a concentration dependent manner”. In addition, the “potency in activating RNase L relative to authentic p3 A3” value in the experiment with RNase L [4] is listed as “equipotent to authentic p3 A3”. Besides, the “rRNA cleavage by RNase L after photolabelling” value in the experiment with RNase L [5] was “observed to cleave 18S and 28S rRNA to the same specific cleavage products characteristic of RNase L activation by 8-azido-p3 A3 without photoactivation”. Also, in the experiment on RNase L [2], the “final concentration at which RNase L is activated to degrade rRNA to specific cleavage products” value was 10^-9 M; the “concentration dependence of rRNA degradation” value is given as “concentration dependent”; the “potency in rRNA degradation relative to authentic p3 A3” value is on record as “as potent as authentic p3 A3”; the “biological activity (RNase L binding and activation) relative to authentic 2-5A” value is recorded as “almost identical to that of authentic 2-5A”.
